Assay results as given in patent US20260216170A1, “TETRAHYDROISOQUINOLINE HETEROBIFUNCTIONAL BCL-XL DEGRADERS” (Treeline Biosciences, Inc., priority 2023, published 2026).

Molecular target: T1, Human BCL-XL protein (N-terminal HiBiT tagged BCL-XL expressed in HT1080 cells) (Homo sapiens, UniProt Q07817)
T1 construct: expressed in transfected cells; host or cells: HT-1080 (ATCC CCL-121), stably transduced with lentivirus pLV-UBC-N-HiBiT-BCL-XL-PGK-puro and selected with puromycin
Assay: HiBiT Based Degradation Assay
Format: cell-based
Settings: 24 hours incubation; for DC50: BCL-XL degradation, HT1080 cells expressing N-HiBiT-BCL-XL, normalized with DMSO control, geometric mean for multiple data points, read-out: EC50 (24 h); for Ymin (24 h): bottom of BCL-XL degradation curve (remaining HiBiT-BCL-XL signal vs DMSO control), HT1080 cells
Summary of the method: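 BCL-XL degradation was read as Nano-Glo HiBiT lytic luminescence relative to DMSO after a 24 h compound treatment of HT1080 cells carrying stably integrated N-HiBiT-BCL-XL. EC50 values come from four-parameter logistic curves, with the hook-curve minimum fixed as bottom, and are geometric means where tested repeatedly.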

T1 sequence (Q07817 whole entry): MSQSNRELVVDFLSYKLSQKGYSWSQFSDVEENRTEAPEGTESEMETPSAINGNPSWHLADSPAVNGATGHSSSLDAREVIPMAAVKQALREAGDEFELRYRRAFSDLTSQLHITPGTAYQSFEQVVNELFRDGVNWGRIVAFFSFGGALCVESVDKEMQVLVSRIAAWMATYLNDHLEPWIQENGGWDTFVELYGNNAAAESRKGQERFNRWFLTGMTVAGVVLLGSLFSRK

| SMILES | DC50 | Ymin (24 h) |
| --- | --- | --- |
| Cc1c(OCC2CC3(CCN(CC(=O)Nc4ccc5c(C6CCC(=O)NC6=O)nn(C)c5c4)CC3)C2)cccc1-c1ccc(N2CCc3ccnc(C(=O)Nc4nc5ccccc5s4)c3C2)nc1C(=O)O (stereo not shown) [Compound 134, 6-(8-(benzo[d]thiazol-2-ylcarbamoyl)-3,4-dihydro-2,7-naphthyridin-2(1H)-yl)-3-(3-((7-(2-((3-(2,6-dioxopiperidin-3-yl)-1-methyl-1H-indazol-6-yl)amino)-2-oxoethyl)-7-azaspiro[3.5]nonan-2-yl)methoxy)-2-methylphenyl)picolinic acid] | 10 to 100 nM | B (30% ≤ Ymin < 50%) |
| Cc1cc(OC[C@H]2C[C@H]2C2CCN(CC(=O)Nc3ccc4c(C5CCC(=O)NC5=O)nn(C)c4c3)CC2)ccc1-c1ccc(N2CCc3cccc(C(=O)Nc4nc5ccccc5s4)c3C2)nc1C(=O)O (single isomer, unassigned) [Compound 1003c] | < 10 nM | A (Ymin < 30%) |
| Cc1c(OC2CC3(CCN(CC(=O)Nc4ccc5c(C6CCC(=O)NC6=O)nn(C)c5c4F)CC3)C2)cccc1-c1ccc(N2CCc3ccnc(C(=O)Nc4nc5ccccc5s4)c3C2)nc1C(=O)O (stereo not shown) [Compound 204, 6-(8-(benzo[d]thiazol-2-ylcarbamoyl)-3,4-dihydro-2,7-naphthyridin-2(1H)-yl)-3-(3-((7-(2-((3-(2,6-dioxopiperidin-3-yl)-7-fluoro-1-methyl-1H-indazol-6-yl)amino)-2-oxoethyl)-7-azaspiro[3.5]nonan-2-yl)oxy)-2-methylphenyl)picolinic acid] | < 10 nM | B (30% ≤ Ymin < 50%) |
| Cn1nc(C2CCC(=O)NC2=O)c2ccc(NC(=O)CN3CCC4(CC3)CC(COc3cccc(-c5ccc(N6CCc7ccnc(C(=O)Nc8nc9ccccc9s8)c7C6)nc5C(=O)O)c3C(F)(F)F)C4)cc21 (stereo not shown) [Compound 161, 6-[8-(1,3-benzothiazol-2-ylcarbamoyl)-3,4-dihydro-1H-2,7-naphthyridin-2-yl]-3-[3-[[7-[2-[[3-(2,6-dioxo-3-piperidyl)-1-methyl-indazol-6-yl]amino]-2-oxo-ethyl]-7-azaspiro[3.5]nonan-2-yl]methoxy]-2-(trifluoromethyl)phenyl]pyridine-2-carboxylic acid] | 10 to 100 nM | B (30% ≤ Ymin < 50%) |
| Cc1cc(OCC2CC3(CCN(CC(=O)Nc4ccc5c(C6CCC(=O)NC6=O)nn(C)c5c4F)CC3)C2)ccc1-c1ccc(N2CCc3cccc(C(=O)Nc4nc5ccccc5s4)c3C2)nc1C(=O)O (stereo not shown) [Compound 122, 6-(8-(benzo[d]thiazol-2-ylcarbamoyl)-3,4-dihydroisoquinolin-2(1H)-yl)-3-(4-((7-(2-((3-(2,6-dioxopiperidin-3-yl)-7-fluoro-1-methyl-1H-indazol-6-yl)amino)-2-oxoethyl)-7-azaspiro[3.5]nonan-2-yl)methoxy)-2-methylphenyl)picolinic acid] | 10 to 100 nM | B (30% ≤ Ymin < 50%) |
| Cc1c(OC2CC3(CCN(CC(=O)Nc4ccc5c(C6CCC(=O)NC6=O)nn(C)c5c4)CC3)C2)cccc1-c1ccc(N2CCc3cccc(C(=O)Nc4nc5ccccc5s4)c3C2)nc1C(=O)O (stereo not shown) [Compound 113, 6-[8-(1,3-benzothiazol-2-ylcarbamoyl)-3,4-dihydro-1H-isoquinolin-2-yl]-3-[3-[[7-[2-[[3-(2,6-dioxo-3-piperidyl)-1-methyl-indazol-6-yl]amino]-2-oxo-ethyl]-7-azaspiro[3.5]nonan-2-yl]oxy]-2-methyl-phenyl]pyridine-2-carboxylic acid] | < 10 nM | B (30% ≤ Ymin < 50%) |
| Cn1nc(C2CCC(=O)NC2=O)c2ccc(NC(=O)CN3CCN(CCCO[C@H]4CC[C@H](c5ccc(N6CCc7cccc(C(=O)Nc8nc9ccccc9s8)c7C6)nc5C(=O)O)CC4)CC3)cc21 (stereo partly shown) [Compound 2001a] | < 10 nM | B (30% ≤ Ymin < 50%) |
| Cn1nc(C2CCC(=O)NC2=O)c2ccc(NC(=O)CN3CCC4(CC3)CC(COc3ccc(-c5ccc(N6CCc7cccc(C(=O)Nc8nc9ccccc9s8)c7C6)nc5C(=O)O)c(C(F)(F)F)c3)C4)c(F)c21 (stereo not shown) [Compound 186] | 10 to 100 nM | B (30% ≤ Ymin < 50%) |
